Source: patent publication US20170073337A1, “DIHYDROTHIAZINE AND DIHYDROOXAZINE DERIVATIVES HAVING BACE1 INHIBITORY ACTIVITY” (Shionogi & Co., Ltd., priority 2014, published 2017)

What was measured:
[1] = Pharmacokinetic study (oral absorption); type: in vivo; details: bioavailability from AUCs of oral and intravenous administration; mouse or rat
Procedure: (1l) Animal: mouse or rat (2) Breeding conditions: mouse or rat was allowed free access to the tap water and the solid food. (3) Dose and grouping: orally or intravenously administered at a predetermined dose: grouping was as follows (Dose depends on the compound) Oral administration: 1 to 30 mg/kg (n=2 to 3) Intravenous administration: 0.5 to 10 mg/kg (n=2 to 3) (4) Dosing formulation: for oral administration, in a solution or a suspension state; for intravenous administration, in a solubilized state (5) Dosing method: in oral administration, forcedly administer using a syringe attached a flexible feeding tube; in intravenous administration, administer from caudal vein using a syringe attached with a needle. (6) Evaluation items: blood was collected at the scheduled time, and the plasma concentration of the compound of the present invention was measured by LC/MS/MS (7) Statistical analysis: regarding the transition of the plasma concentration of the compound of the present invention, the area under the plasma concentration-time curve (AUC) was calculated by non-linear least squares program WinNonlin (Registered trademark), and the bioavailability (BA) of the compound of the present invention was calculated from the AUCs of the oral administration group and intravenous administration group

[2] = tested on: Aβ production in neuroblastoma SH-SY5Y cells (SH/APPwt); experiment: β-amyloid (Aβ) production inhibitory effect in cell: 96-well; type: cell-based; details: Homo sapiens, Assay format 96-well
Procedure: Neuroblastoma SH-SY5V cells (SH/APPwt) with human wild-type R-APP excessively expressed therein were prepared at 8×10^5 cells/mL, and 150 μl portions thereof were inoculated into each well of a 96-well culture plate (Falcon). The cells were cultured for 2 hours at […]. in a 5% gaseous carbon dioxide incubator. […] Namely, the final DMSO concentration was 1%, and the amount of the cell culture was 200 μl. After the incubation was performed for 24 hours from the addition of the test compound, 100 μl of the culture supernatant was collected from each fraction. The amount of the Aβ in each fraction was measured. The Aβ amount was measured as follows. 10 μl of a homogeneous time resolved fluorescence (HTRF) measurement reagent (Amyloid β1-40 peptide: CIS bio international) and 10 μof the culture supernatant were put into a 384-well half area microplate (black microplate, Costar) and mixed with each other, and then left standing overnight at 4° C. while the light was shielded.

P-gp = molecular target: T1, P-gp (Mus musculus, UniProt P21447); experiment: P-gp substrate test using mdr1a (−/−) B6 mice; type: in vivo; details: Kp in KO mouse (mdr1a (−/−) B6) / Kp in Wild mouse; for Kp at 2 h: mdr1a (−/−) B6 (KO) and C57BL/6J (wild), mouse, brain / plasma, po, 2 mg/kg, read-out: Kp ratio (2 mg/kg, po, 2 hr)
T1 construct: from tissue; host or cells: living mice (brain/plasma distribution), wild type versus mdr1a (−/−)
Procedure: Animal: mdrla (−/−) B6 mice (KO mouse) or […] mice (Wild mouse)
1. Animals may be fed prior to dosing of the compounds of the present invention. 2. The compounds of the present invention were dosed to three animals for each time point and blood and brain samples were removed at selected time points (e.g. 15 min, 30 min, 1 hr, 2 hr, 4 hr, 6 hr, 8 hr, or 24 hr) after dosing. Blood (0.3-0.7 mL) was collected via trunk blood collection with syringe containing anticoagulants (EDTA and heparin). Blood and tissue (e.g. brain) samples were immediately placed on melting ice. 3. Blood samples were centrifuged (1780×g for 10 minutes) for cell removal to obtain plasma. Then, plasma samples were transferred to a clean tube and stored in a −70° C. freezer until analysis. 4. Tissue (e.g. brain) samples were homogenized at a 1:3 ratio of tissue weight to ml of stilled water and transferred to a clean tube and stored in a −70° C. freezer until analysis. 5. Plasma and tissue (e.g. brain) samples were prepared using protein prceipitation and analyzed by LC/MS/MS. The analytical method was calibrated by including a standard curve constructed with blank plasma or brain samples and known quantities of analyte. Quality control samples were included to monitor the accuracy and precision of the methodology. 6. Plasma and brain concentration values (ng/mL and ng/g) were introduced into an appropriate tool used for calculating the pharmacokinetic parameters. A common platform was the WinNonlin (Registered trademark) pharmacokinetic software modeling program.
Kp: Tissue to Plasma concentration ratio Kp ratio=Kp in KO mouse/Kp in Wild mouse KO/Wild ratio of AUC Tissue/AUC Plasma ={AUC Tissue/AUC Plasma (KO mouse)}/{AUC Tissue/AUC Plasma (Wild mouse)}

Recombinant human BACE1 = molecular target: T2, Recombinant human BACE1 (Homo sapiens, UniProt P56817); experiment: Assay of BACE1 inhibitory activity: 96-well; type: biochemical; details: Assay format 96-well
T2 construct: purchased R&D Systems
Procedure: 48.5 μL of substrate peptide solution (Biotin-XSEVNLDAEFRHDSGC-Eu: X=ε-amino-n-capronic acid. Eu=Europium cryplate) was added to each well of 96-hole half-area plate (a black plate: Costar), and after addition of 0.5 μl of the compound of the present invention (DMSO solution) and 1 μl of Recombinant human BACE1(R&D Systems), the reaction mixture was incubated at 30° C. for 3.5 hours. The substrate peptide was synthesized by reacting Cryptate TBPCOOH mono SMP (CIS bio international) with Biotin-XSEVNLDAEFRHDSGC (Peptide Institute, Inc.).
After the incubation for reaction, 50 μl of 8.0 μg/ml Streptavidin-XL665 (CIS bio international) dissolved in phosphate buffer (150 mmol/L […]—KH2PO4, pH 7.0, 0.008% Triton X-100, 0.8 mol/L KF) was added to each well and left stand at 30° C. for 45 minutes.

T1 sequence (P21447 whole entry): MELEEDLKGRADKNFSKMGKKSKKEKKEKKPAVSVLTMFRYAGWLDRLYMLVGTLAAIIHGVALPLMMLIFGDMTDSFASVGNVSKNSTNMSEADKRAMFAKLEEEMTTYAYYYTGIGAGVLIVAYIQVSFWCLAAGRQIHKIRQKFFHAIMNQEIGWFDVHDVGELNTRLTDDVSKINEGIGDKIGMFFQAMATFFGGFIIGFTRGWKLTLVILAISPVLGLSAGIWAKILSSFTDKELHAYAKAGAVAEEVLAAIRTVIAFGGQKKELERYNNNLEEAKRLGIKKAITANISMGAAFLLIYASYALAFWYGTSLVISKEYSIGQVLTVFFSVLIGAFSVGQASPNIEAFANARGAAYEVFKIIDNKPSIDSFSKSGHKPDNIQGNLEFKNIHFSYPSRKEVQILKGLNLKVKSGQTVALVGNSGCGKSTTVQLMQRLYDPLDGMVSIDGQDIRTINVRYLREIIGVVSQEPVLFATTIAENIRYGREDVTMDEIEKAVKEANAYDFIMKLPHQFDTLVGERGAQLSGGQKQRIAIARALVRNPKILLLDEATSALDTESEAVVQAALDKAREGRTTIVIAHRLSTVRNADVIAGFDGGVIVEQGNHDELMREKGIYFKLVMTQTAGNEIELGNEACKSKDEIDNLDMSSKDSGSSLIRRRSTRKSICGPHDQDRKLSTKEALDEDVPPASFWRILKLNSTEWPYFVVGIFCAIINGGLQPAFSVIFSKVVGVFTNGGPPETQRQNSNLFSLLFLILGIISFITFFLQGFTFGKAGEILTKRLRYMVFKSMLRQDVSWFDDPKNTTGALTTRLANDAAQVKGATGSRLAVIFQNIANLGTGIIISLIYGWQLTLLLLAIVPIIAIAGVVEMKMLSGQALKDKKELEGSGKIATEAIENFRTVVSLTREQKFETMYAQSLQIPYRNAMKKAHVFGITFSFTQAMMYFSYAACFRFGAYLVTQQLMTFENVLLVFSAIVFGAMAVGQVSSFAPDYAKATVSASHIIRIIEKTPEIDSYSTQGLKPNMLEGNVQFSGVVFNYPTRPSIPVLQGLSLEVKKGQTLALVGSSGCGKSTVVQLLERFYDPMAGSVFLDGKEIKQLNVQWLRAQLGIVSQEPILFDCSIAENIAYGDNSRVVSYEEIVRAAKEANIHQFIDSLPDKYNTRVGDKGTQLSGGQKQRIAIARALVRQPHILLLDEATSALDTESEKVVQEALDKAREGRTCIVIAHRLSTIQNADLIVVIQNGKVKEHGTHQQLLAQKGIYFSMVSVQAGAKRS
T2 sequence (P56817 46-501): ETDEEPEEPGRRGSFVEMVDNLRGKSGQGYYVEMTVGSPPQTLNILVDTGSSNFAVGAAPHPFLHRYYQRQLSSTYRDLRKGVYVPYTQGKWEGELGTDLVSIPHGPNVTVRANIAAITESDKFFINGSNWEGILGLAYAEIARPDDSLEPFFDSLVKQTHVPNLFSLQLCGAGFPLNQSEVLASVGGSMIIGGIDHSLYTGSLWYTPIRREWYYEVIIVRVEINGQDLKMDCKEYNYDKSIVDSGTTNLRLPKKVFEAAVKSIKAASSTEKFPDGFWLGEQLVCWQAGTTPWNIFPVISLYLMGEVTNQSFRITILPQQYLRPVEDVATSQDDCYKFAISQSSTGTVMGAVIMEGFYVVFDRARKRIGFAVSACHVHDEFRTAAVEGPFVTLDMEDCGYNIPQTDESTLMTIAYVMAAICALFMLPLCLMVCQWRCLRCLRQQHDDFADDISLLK

Structure (SMILES)	BA_% [1] [%]	IC50 [2] [nM]	Kp at 2 h (P-gp)	IC50 (Recombinant human BACE1) [nM]	Kp ratio (2 mg/kg, po, 2 hr) (P-gp)
C[C@H]1SC(N)=N[C@](C)(c2nc(NC(=O)c3ccc(C#N)cn3)ccc2F)[C@H]1F [Compound I-1]	66.7	0.504	4.12	13.3	–
C[C@H]1SC(N)=N[C@](C)(c2nc(NC(=O)c3ccc(F)cn3)ccc2F)[C@H]1F [Compound I-2]	51.3	3.73	0.959	67.9	–
C[C@H]1SC(N)=N[C@](C)(c2nc(NC(=O)c3cnc(OCF)cn3)ccc2F)[C@H]1F [Compound I-3]	38.8	3.59	5.16	61.3	–
C[C@]1(c2nc(NC(=O)c3ccc(C#N)cn3)ccc2F)N=C(N)S[C@H](CF)[C@@H]1F [Compound I-4]	83.2	0.697	2.92	11.5	–
C[C@@]1(c2cc(NC(=O)c3ccc(C#N)cn3)ccc2F)C[C@@](C)(C(F)(F)F)OC(N)=N1 [Compound I-7]	32.8	2.52	4.21	47.5	–
C[C@]1(c2cc(NC(=O)c3ccc(C#N)cn3)ccc2F)N=C(N)O[C@H](CF)[C@@H]1OCC(F)(F)F [Compound I-10]	46.3	0.708	–	25.8	–
C[C@]1(c2cc(NC(=O)c3ccc(F)cn3)ccc2F)N=C(N)O[C@H](CF)[C@@H]1OCC(F)(F)F [Compound I-11]	–	4.21	–	102	–
C[C@]1(c2cc(NC(=O)c3cnc(OCF)cn3)ccc2F)N=C(N)O[C@H](CF)[C@@H]1OCC(F)(F)F [Compound I-12]	47.4	1.88	–	56.8	–
C[C@H](F)[C@H]1OC(N)=N[C@](C)(c2cc(NC(=O)c3ccc(C#N)cn3)ccc2F)[C@H]1F [Compound I-13]	47.3	1.12	–	32	–
C[C@@H](F)[C@H]1OC(N)=N[C@](C)(c2cc(NC(=O)c3ccc(C#N)cn3)ccc2F)[C@H]1F [Compound I-15]	37.4	0.65	–	15.2	–
COc1cnc(C(=O)Nc2ccc(F)c([C@@]3(C)N=C(N)O[C@H]([C@H](C)F)[C@@H]3F)c2)cn1 [Compound I-17]	–	3.23	–	59.7	–
CO[C@H]1[C@@H](CF)OC(N)=N[C@]1(C)c1cc(NC(=O)c2ccc(C#N)cn2)ccc1Cl [Compound I-18]	–	0.573	–	18	–
CO[C@H]1[C@@H](CF)OC(N)=N[C@]1(C)c1cc(NC(=O)c2cnc(OCF)cn2)ccc1Cl [Compound I-19]	39.1	1.2	–	46.5	–
CO[C@H]1[C@@H](CF)OC(N)=N[C@]1(C)c1cc(NC(=O)c2ccc(F)cn2)ccc1Cl [Compound I-20]	–	4.19	–	72.7	–
CO[C@H]1[C@@H](CF)OC(N)=N[C@]1(C)c1cc(NC(=O)c2cnc(OCF)cn2)ccc1F [Compound I-24]	44	2.28	–	97	–
CO[C@H]1[C@@H](CF)OC(N)=N[C@]1(C)c1cc(NC(=O)c2ccc(F)cn2)ccc1F [Compound I-25]	–	4.31	–	156	–
C[C@@H]1[C@@H](C(F)(F)F)OC(N)=N[C@]1(C)c1cc(NC(=O)c2ccc(C#N)cn2)ccc1F [Compound I-27]	–	6.7	–	40.5	–
C[C@H]1[C@@H](C(F)(F)F)OC(N)=N[C@]1(C)c1cc(NC(=O)c2ccc(C#N)cn2)ccc1F [Compound I-28]	–	1.5	5.41	22.6	–

Now from value to compound:

BA_% [1] [%]	IC50 [2] [nM]	Kp at 2 h (P-gp)	IC50 (Recombinant human BACE1) [nM]	Kp ratio (2 mg/kg, po, 2 hr) (P-gp)	Structure (SMILES)
–	93.5	–	1560	–	C[C@H]1[C@H](C(F)(F)F)OC(N)=N[C@]1(C)c1cc(NC(=O)c2ccc(C#N)cn2)ccc1F [Compound I-29]
–	2.33	3.63	52.1	–	C[C@H]1[C@@H](C(F)(F)F)OC(N)=N[C@]1(C)c1cc(NC(=O)c2cnc(OCF)cn2)ccc1F [Compound I-30]
–	0.668	–	22.3	–	C[C@H]1[C@@H](C(F)F)OC(N)=N[C@]1(C)c1cc(NC(=O)c2ccc(C#N)cn2)ccc1F [Compound I-31]
–	2.39	–	43.6	–	Cc1nc(C(=O)Nc2ccc(F)c([C@@]3(C)N=C(N)O[C@H](C(F)(F)F)[C@@H]3C)c2)co1 [Compound I-32]
–	1.07	–	49.2	–	C[C@H]1[C@@H](C(F)F)OC(N)=N[C@]1(C)c1cc(NC(=O)c2cnc(OCF)cn2)ccc1F [Compound I-33]
–	0.391	5.15	13.1	–	C[C@]1(c2cc(NC(=O)c3ccc(C#N)cn3)ccc2F)N=C(N)O[C@H]2[C@@H]1OCC2(F)F [Compound I-35]
36.2	–	6.97	–	–	CC(F)(F)[C@H]1OC(N)=N[C@](C)(c2cc(NC(=O)c3ccc(C#N)cn3)ccc2F)[C@H]1F [Compound I-40]
35.2	–	–	–	2.66	C[C@H]1[C@@H](C(F)(F)F)OC(N)=N[C@]1(C)c1cc(NC(=O)c2cnc(OCF)cn2)ccc1F [Compound I-41]
28.7	–	2.07	–	–	COc1cnc(C(=O)Nc2ccc(F)c([C@@]3(C)N=C(N)O[C@H](C(C)(F)F)[C@@H]3F)c2)cn1 [Compound I-42]
–	2.11	–	69.6	–	C[C@]1(c2cc(NC(=O)c3cnc(OCF)cn3)ccc2F)N=C(N)OCC12CC(F)(F)C2 [Compound I-44]
–	5.71	–	134	–	C[C@]1(c2cc(NC(=O)c3ccc(F)cn3)ccc2F)N=C(N)OCC12CC(F)(F)C2 [Compound I-45]
22.2	–	6.13	–	–	C[C@H]1SC(N)=N[C@](C)(c2cc(NC(=O)c3cnc(OCC(F)(F)F)cn3)ccc2F)[C@H]1F [Compound I-46]
–	–	2.12	–	–	C[C@H]1SC(N)=N[C@](C)(c2cc(NC(=O)c3cnc(OC(F)F)cn3)ccc2F)[C@H]1F [Compound I-47]
–	–	5.57	–	–	C[C@H]1SC(N)=N[C@](C)(c2cc(NC(=O)c3cnc(OCC(F)F)cn3)ccc2F)[C@H]1F [Compound I-48]
39.1	–	–	–	–	Cc1cc(C#N)cnc1C(=O)Nc1ccc(F)c([C@@]2(C)N=C(N)S[C@H](C)[C@@H]2F)c1 [Compound I-52]
78.7	–	4.54	–	–	C[C@H]1SC(N)=N[C@](C)(c2cc(NC(=O)c3ccc(F)cn3)ccc2F)[C@H]1F [Compound I-116]
